Assay results from paper PMC5247395 (EJNMMI Research, 2017).

Experiments:
[1] = n-octanol/PBS distribution coefficient (shake-flask); type: physicochemical; settings: n-octanol/PBS pH 7.4, shake-flask
Protocol: The distribution coefficients (logD values) of the radioligands were determined by a shake-flask method using liquid-liquid extraction followed by phase separation, as previously reported (Additional file 1). In brief, the PSMA ligands were labeled at a specific activity of 5 MBq/nmol. […] The vials were vortexed vigorously for 1 min and then centrifuged for 6 min for phase separation. The concentration of radioactivity in a defined volume of each layer was measured in a γ-counter (Perkin Elmer, Wallac Wizard 1480). The distribution coefficients were expressed as the logarithm of the ratio of counts per minute (cpm) measured in the n-octanol phase to the cpm measure in the PBS phase. The values are reported as the average of at least three independent measurements (± standard deviation, SD), each performed with five replicates. Data were analyzed for significance using a one-way ANOVA test (GraphPad Prism software, version 7). A p value of <0.05 was considered as statistically significant.

PSMA = target: T1, PSMA (Homo sapiens, UniProt Q04609); test: Saturation binding assay on PC-3 PIP cells (PSMA affinity, KD); settings: for Kd: 30 min at 4 °C, saturation binding; for Relative PSMA-binding affinity: inverse molar ratio of average KD values, ^177Lu-PSMA-617 set to 1
T1 construct: expressed in transfected cells; host or cells: PC-3 PIP cells (PSMA-positive subline of human PC-3 prostate cancer cells), provided by Prof; Martin Pomper, Johns Hopkins
Protocol: Determination of the PSMA affinity was performed by saturation binding assays using PC-3 PIP cells and different concentrations of ^nat/44Sc-, ^nat/177Lu-, ^nat/68Ga-PSMA-617, or ^nat/68Ga-PSMA-11, respectively (Additional file 1).
Determination of the KD values was performed by saturation binding assays using PSMA^pos PC-3 PIP cells. After successful radiolabeling of the PSMA ligands, a 2.5-fold molar excess of the corresponding cold metal was added and the reaction mixture was incubated for another 10 min at 95 °C. Quality control was performed again after reaction of the radioligands with the “cold” metal as described in the main manuscript.
The cells were seeded in 48-well-plates (8 x 10^5 cells in 500 uL RPMI medium/well) allowing adhesion and growth overnight at 37 °C and 5% CO2. For the entire experiment, the well-plates were kept on ice. After removal of the supernatant, the cells were washed once with ice-cold PBS pH 7.4 prior to the addition of different concentrations (1 nM-2 µM) of either ^nat/44Sc-, ^nat/177Lu-, ^nat/67/68Ga-PSMA-617 or ^nat/67/68Ga-PSMA-11 in ice-cold RPMI medium without supplements. For the determination of non-specific binding, cell samples were incubated with 2-phosphonomethyl pentanedioic acid (2-PMPA, 200 μM). The well-plates were incubated for 30 min at 4 °C. Then, the supernatants were removed and the cells washed twice with ice-cold PBS followed by addition of NaOH (1 M, 600 µL) to each well. The cell suspensions were transferred to 4 mL tubes for measurement in a γ-counter (Wallac Wizard 1480, Perkin Elmer). The KD values were determined by plotting specific-binding (total binding minus unspecific binding) against the molar concentration of the added radioligands followed by nonlinear regression analysis using GraphPad Prism 7 software.

[2] = tested on: PC-3 PIP/flu tumor-bearing mice; test: Biodistribution in PC-3 PIP/flu tumor-bearing mice; settings: i.v.; for PC-3 flu Tumor: PSMA^neg xenograft; for PC-3 PIP Tumor: PSMA^pos xenograft
Protocol: In vivo experiments were approved by the local veterinarian department and conducted in accordance with the Swiss law of animal protection. All mice were obtained from Charles River Laboratories (Sulzfeld, Germany), at the age of 5–6 weeks. Female, athymic nude Balb/c mice were subcutaneously inoculated with PC-3 PIP cells (6 × 10^6 cells in 100 μL Hank’s balanced salt solution (HBSS) with Ca^2+/Mg^2+) on the right shoulder and with PC-3 flu cells (5 × 10^6 cells in 100 μL HBSS with Ca^2+/Mg^2+) on the left shoulder 2 weeks before the performance of the experiments.
Mice were sacrificed at different time points post injection (p.i.) of the radioligands. Selected tissues and organs were collected, weighed and measured using a γ-counter. The results were decay-corrected and listed as a percentage of the injected activity per gram of tissue mass (% IA/g).

T1 sequence (Q04609 whole entry): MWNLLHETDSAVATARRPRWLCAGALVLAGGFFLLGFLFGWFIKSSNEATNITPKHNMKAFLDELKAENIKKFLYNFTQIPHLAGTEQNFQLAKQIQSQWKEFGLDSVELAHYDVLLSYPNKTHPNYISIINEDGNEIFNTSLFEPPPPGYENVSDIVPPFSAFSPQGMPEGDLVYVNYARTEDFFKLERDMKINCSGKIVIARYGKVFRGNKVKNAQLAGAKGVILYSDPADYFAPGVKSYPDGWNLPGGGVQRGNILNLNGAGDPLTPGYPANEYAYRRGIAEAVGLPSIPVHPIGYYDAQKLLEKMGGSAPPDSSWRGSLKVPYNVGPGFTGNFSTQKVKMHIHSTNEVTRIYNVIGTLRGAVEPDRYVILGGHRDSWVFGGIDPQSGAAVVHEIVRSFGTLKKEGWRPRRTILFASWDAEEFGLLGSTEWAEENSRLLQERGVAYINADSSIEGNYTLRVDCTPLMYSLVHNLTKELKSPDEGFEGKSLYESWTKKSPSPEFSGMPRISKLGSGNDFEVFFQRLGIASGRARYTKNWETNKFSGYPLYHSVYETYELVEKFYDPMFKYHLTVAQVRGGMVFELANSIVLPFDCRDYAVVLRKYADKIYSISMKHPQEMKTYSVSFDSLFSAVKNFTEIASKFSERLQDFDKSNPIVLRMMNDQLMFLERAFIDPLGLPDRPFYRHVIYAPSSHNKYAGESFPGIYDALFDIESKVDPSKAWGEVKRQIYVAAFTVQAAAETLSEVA

## O=C([O-])CN1CCN(CC(=O)[O-])CCN(CC(=O)NCC2CCC(C(=O)NC(Cc3ccc4ccccc4c3)C(=O)NCCCCC(NC(=O)NC(CCC(=O)O)C(=O)O)C(=O)O)CC2)CCN(CC(=O)[O-])CC1.[68Ga+3] (centres unmarked) [^68Ga-PSMA-617]
[1]
  LogD values: −4.30 ± 0.10
PSMA
  Kd: 72 ± 29 nM
  Relative PSMA-binding affinity: 0.5
[2]; 15 min p.i.
  Blood: 6.88 ± 0.89 % IA/g
  Bone: 1.72 ± 0.06 % IA/g
  Heart: 2.61 ± 0.49 % IA/g
  Intestines: 1.55 ± 0.19 % IA/g
  Kidneys: 22.8 ± 0.81 % IA/g
  Liver: 4.74 ± 0.43 % IA/g
  Lung: 4.70 ± 0.09 % IA/g
  Muscle: 1.53 ± 0.24 % IA/g
  Salivary glands: 2.30 ± 0.37 % IA/g
  Spleen: 3.92 ± 0.28 % IA/g
  Stomach: 1.48 ± 0.09 % IA/g
  PC-3 flu Tumor: 2.30 ± 0.18 % IA/g
  PC-3 PIP Tumor: 28.7 ± 5.26 % IA/g
[2]; 30 min p.i.
  Blood: 3.46 ± 0.98 % IA/g
  Bone: 1.00 ± 0.17 % IA/g
  Heart: 1.47 ± 0.34 % IA/g
  Intestines: 0.98 ± 0.28 % IA/g
  Kidneys: 15.5 ± 3.46 % IA/g
  Liver: 2.91 ± 0.65 % IA/g
  Lung: 2.55 ± 0.51 % IA/g
  Muscle: 0.80 ± 0.10 % IA/g
  Salivary glands: 1.06 ± 0.23 % IA/g
  Spleen: 2.50 ± 0.82 % IA/g
  Stomach: 1.09 ± 0.40 % IA/g
  PC-3 flu Tumor: 1.23 ± 0.35 % IA/g
  PC-3 PIP Tumor: 48.5 ± 8.51 % IA/g
[2]; 2 h p.i.
  Blood: 0.14 ± 0.00 % IA/g
  Bone: 0.09 ± 0.02 % IA/g
  Heart: 0.09 ± 0.01 % IA/g
  Intestines: 0.12 ± 0.03 % IA/g
  Kidneys: 3.48 ± 0.18 % IA/g
  Liver: 1.60 ± 0.05 % IA/g
  Lung: 0.20 ± 0.00 % IA/g
  Muscle: 0.05 ± 0.01 % IA/g
  Salivary glands: 0.14 ± 0.03 % IA/g
  Spleen: 0.91 ± 0.14 % IA/g
  Stomach: 0.16 ± 0.11 % IA/g
  PC-3 flu Tumor: 0.18 ± 0.03 % IA/g
  PC-3 PIP Tumor: 55.8 ± 14.2 % IA/g

## O=C([O-])CN1CCN(CC(=O)[O-])CCN(CC(=O)NCC2CCC(C(=O)N[C@@H](Cc3ccc4ccccc4c3)C(=O)NCCCC[C@H](NC(=O)N[C@@H](CCC(=O)O)C(=O)O)C(=O)O)CC2)CCN(CC(=O)[O-])CC1.[177Lu+3] (some centres unmarked) [^177Lu-PSMA-617]
[1]
  LogD values: −4.18 ± 0.06
PSMA
  Kd: 39 ± 23 nM
  Relative PSMA-binding affinity: 1.0
[2]; 15 min p.i.
  Blood: 7.28 ± 0.32 % IA/g
  Bone: 2.03 ± 0.10 % IA/g
  Heart: 2.87 ± 0.17 % IA/g
  Intestines: 1.64 ± 0.12 % IA/g
  Kidneys: 30.8 ± 4.52 % IA/g
  Liver: 1.63 ± 0.27 % IA/g
  Lung: 4.76 ± 0.55 % IA/g
  Muscle: 1.78 ± 0.21 % IA/g
  Salivary glands: 2.11 ± 0.19 % IA/g
  Spleen: 2.85 ± 0.38 % IA/g
  Stomach: 1.70 ± 0.12 % IA/g
  PC-3 flu Tumor: 2.49 ± 0.45 % IA/g
  PC-3 PIP Tumor: 32.3 ± 3.54 % IA/g
[2]; 30 min p.i.
  Blood: 3.05 ± 0.81 % IA/g
  Bone: 1.07 ± 0.27 % IA/g
  Heart: 1.32 ± 0.28 % IA/g
  Intestines: 1.13 ± 0.45 % IA/g
  Kidneys: 22.6 ± 1.78 % IA/g
  Liver: 0.90 ± 0.15 % IA/g
  Lung: 2.51 ± 0.44 % IA/g
  Muscle: 0.75 ± 0.20 % IA/g
  Salivary glands: 1.01 ± 0.27 % IA/g
  Spleen: 1.55 ± 0.05 % IA/g
  Stomach: 0.98 ± 0.35 % IA/g
  PC-3 flu Tumor: 1.22 ± 0.32 % IA/g
  PC-3 PIP Tumor: 47.0 ± 3.52 % IA/g
[2]; 2 h p.i.
  Bone: 0.12 ± 0.07 % IA/g
  Heart: 0.06 ± 0.00 % IA/g
  Intestines: 0.14 ± 0.06 % IA/g
  Kidneys: 3.97 ± 0.56 % IA/g
  Liver: 0.13 ± 0.02 % IA/g
  Lung: 0.15 ± 0.03 % IA/g
  Muscle: 0.04 ± 0.02 % IA/g
  Salivary glands: 0.10 ± 0.03 % IA/g
  Spleen: 0.21 ± 0.03 % IA/g
  Stomach: 0.08 ± 0.02 % IA/g
  PC-3 flu Tumor: 0.13 ± 0.01 % IA/g
  PC-3 PIP Tumor: 45.8 ± 4.02 % IA/g
[2]; 4 h p.i.
  PC-3 flu Tumor: 0.08 ± 0.01 % IA/g
  PC-3 PIP Tumor: 56.0 ± 8.0 % IA/g
[2]; 6 h p.i.
  Blood: 0.02 ± 0.00 % IA/g
  Bone: 0.05 ± 0.01 % IA/g
  Heart: 0.03 ± 0.00 % IA/g
  Intestines: 0.03 ± 0.00 % IA/g
  Kidneys: 2.47 ± 0.28 % IA/g
  Liver: 0.09 ± 0.01 % IA/g
  Lung: 0.06 ± 0.02 % IA/g
  Muscle: 0.02 ± 0.01 % IA/g
  Salivary glands: 0.04 ± 0.00 % IA/g
  Spleen: 0.11 ± 0.01 % IA/g
  Stomach: 0.05 ± 0.01 % IA/g
  PC-3 flu Tumor: 0.06 ± 0.01 % IA/g
  PC-3 PIP Tumor: 55.4 ± 1.67 % IA/g
